Results as given in patent publication US20220064204A1, “AMORPHOUS FORM OF 5-BROMOPYRIDIN-3-YL 3-DEOXY-3-[4-(3,4,5-TRIFLUOROPHENYL)-1H-1,2,3-TRIAZOL-1-YL]-1-THIO-ALPHA-D-GALACTOPYRANOSIDE” (GALECTO BIOTECH AB, priority 2018, published 2022).
Like-named read-outs stand apart in the source and are kept apart here.

Tests used:
[1] = Phase 1 first-in-human study, single oral dose pharmacokinetics in healthy subjects (drug layered formulation capsules); format: in vivo; conditions: plasma; for half-life / AUC(0-t) / Tmax / AUC(0-inf): human; for half-life / AUC(0-t) / Tmax: po; for half-life / AUC(0-t) / AUC(0-inf): geometric mean; for AUC(0-t): read-out: AUC0-24; for Tmax / Tlog: median
Experimental: The first part of this study aims to obtain safety, tolerability and pharmacokinetic data when the compound of formula I is administered orally as a single dose in healthy subjects using the above drug layered formulation.
Experimental Data from Healthy Subject Cohort A1: 5 mg Compound of Formula I (API)
6 healthy subjects received 5 mg of compound of formula I capsules orally as a single dose in the fasted state, and 2 subjects receive placebo. The first 2 subjects (1 active and 1 placebo) were dosed 24 hours before the remaining subjects. Blood samples for pharmacokinetic analysis of plasma API concentrations were obtained by venipuncture before dosing, and then at 0.5, 1, 1.5, 2, 3, 4, 6, 8, 12, 16, 24, 36, and 48 hours post dose. […]
Experimental Data from Healthy Subject Cohort A3 Fasted: 50 mg Compound of Formula I (API)
6 healthy subjects received 50 mg of compound of formula I capsules orally as a single dose in the fasted state, and 2 subjects receive placebo. The first 2 subjects (1 active and 1 placebo) were dosed 24 hours before the remaining subjects. Blood samples for pharmacokinetic analysis of plasma API concentrations were obtained by venipuncture before dosing, and then at 0.5, 1, 1.5, 2, 3, 4, 6, 8, 12, 16, 24, 36, and 48 hours post dose.
Experimental Data from Healthy Subject Cohort A3 Fed: 50 mg Compound of Formula I (API)
6 healthy subjects received 50 mg of compound of formula I capsules orally as a single dose in the fed state, and 2 subjects receive placebo. The first 2 subjects (1 active and 1 placebo) were dosed 24 hours before the remaining subjects. Blood samples for pharmacokinetic analysis of plasma API concentrations were obtained by venipuncture before dosing, and then at 0.5, 1, 1.5, 2, 3, 4, 6, 8, 12, 16, 24, 36, and 48 hours post dose. […]
Experimental Data from Healthy Subject Cohort A5: 100 mg Compound of Formula I (API)
6 healthy subjects received 100 mg of compound of formula I capsules orally as a single dose in the fasted state, and 2 subjects receive placebo. The first 2 subjects (1 active and 1 placebo) were dosed 24 hours before the remaining subjects. Blood samples for pharmacokinetic analysis of plasma API concentrations were obtained by venipuncture before dosing, and then at 0.5, 1, 1.5, 2, 3, 4, 6, 8, 12, 16, 24, 36, and 48 hours post dose.
Experimental Data from Healthy Subject Cohort A6: 200 mg Compound of Formula I (API)
6 healthy subjects received 200 mg of compound of formula I capsules orally as a single dose in the fasted state, and 2 subjects receive placebo. The first 2 subjects (1 active and 1 placebo) were dosed 24 hours before the remaining subjects. Blood samples for pharmacokinetic analysis of plasma API concentrations were obtained by venipuncture before dosing, and then at 0.5, 1, 1.5, 2, 3, 4, 6, 8, 12, 16, 24, 36, and 48 hours post dose.
Experimental Data from Healthy Subject Cohort A7: 400 mg Compound of Formula I (API)
6 healthy subjects received 400 mg of compound of formula I capsules orally as a single dose in the fasted state, and 2 subjects receive placebo. The first 2 subjects (1 active and 1 placebo) were dosed 24 hours before the remaining subjects. Blood samples for pharmacokinetic analysis of plasma API concentrations were obtained by venipuncture before dosing, and then at 0.5, 1, 1.5, 2, 3, 4, 6, 8, 12, 16, 24, 36, and 48 hours post dose.

[2] = Phase 1 study, multiple oral dose (twice a day for 10 days) pharmacokinetics in healthy subjects; format: in vivo, human; conditions: fasted state; for half-life: po
Experimental: The second part of this study aims to obtain safety, tolerability and pharmacokinetic data when the compound of formula I is administered orally dosed twice a day for 10 days in healthy subjects using the above drug layered formulation.
Experimental Data from Healthy Subject Cohort B1: 50 mg Compound of Formula I (API)
8 healthy subjects received 50 mg of compound of formula I capsules and 3 subjects receive placebo orally twice a day for 10 days. Blood samples for pharmacokinetic analysis of plasma API concentrations were obtained by venipuncture before dosing on day 1, and then at 0.5, 1, 1.5, 2, 3, 4, 6, 8, 12, 16, 24, 36, and 48 hours post dose. Blood sampling was repeated on day 10.
Experimental Data from Healthy Subject Cohort B2: 100 mg Compound of Formula I
8 healthy subjects received 100 mg of compound of formula I capsules and 3 subjects receive placebo orally twice a day for 10 days. Blood samples for pharmacokinetic analysis of plasma API concentrations were obtained by venipuncture before dosing on day 1, and then at 0.5, 1, 1.5, 2, 3, 4, 6, 8, 12, 16, 24 hours post dose. Blood sampling was repeated at day 10.

[3] = Dissolution of filled capsules / pellets in biorelevant media (FaSSIF); format: physicochemical; conditions: 18 hours
Experimental: As an alternative to poloxamer 188, the surfactant SLS was also evaluated to aid in the dispersion of the SDD.
The resulting drug layered pellets were analysed by UV-HPLC to determine the drug loading as well as by SEM, XRPD and Dissolution in biorelevant media.
The dissolution profile of the drug-layered pellets was compared to the dissolution profiles of the API alone as well an ASD formulation (physical mixture of SDD (API:HPMC603=1:2) and poloxamer 188) (see FIG. 4).

[4] = First in human study, safety and tolerability, single and multiple ascending doses; format: in vivo; conditions: oral
Experimental: The compound of formula I is tested in a Phase 1, randomized, double-blind, placebo-controlled, first-in-human study in which the safety, tolerability, and pharmacokinetics of orally administered compound of formula I is evaluated in healthy adult subjects and adult subjects with indication of suspected Nonalcoholic steatohepatitis (NASH) and liver fibrosis.
This study aims to obtain safety, tolerability and pharmacokinetic data when the compound of formula I is administered orally as single doses and as multiple doses to healthy subjects. In addition, an optional part has been included to obtain safety and tolerability data when the compound of formula I is administered orally as multiple doses to subjects with suspected Nonalcoholic steatohepatitis (NASH) and liver fibrosis.

[5] = Material characterization by TGA and dynamic vapor sorption (DVS); format: physicochemical; conditions: crystalline compound
[6] = Solubility of the crystalline compound (statement); format: physicochemical; conditions: highly crystalline compound
[7] = 5 mg, single oral dose 5 mg, fasted state
[8] = 20 mg, single oral dose 20 mg, fasted state
[9] = 50 mg, single oral dose 50 mg (1 × 50 mg), fasted state
[10] = 50 mg, single oral dose 50 mg (1 × 50 mg), fed state
[11] = 100 mg, single oral dose 100 mg, fasted state
[12] = 200 mg, single oral dose 200 mg, fasted state
[13] = 400 mg, single oral dose 400 mg, fasted state
[14] = single oral dose 100 mg, fasted state
[15] = single oral dose 200 mg, fasted state
[16] = single oral dose 400 mg, fasted state
[17] = 50 mg BID oral, Day 10, healthy subjects, geometric mean
[18] = 100 mg BID oral, Day 10, healthy subjects, geometric mean

OC[C@H]1O[C@H](Sc2cncc(Br)c2)[C@H](O)[C@@H](n2cc(-c3cc(F)c(F)c(F)c3)nn2)[C@H]1O [GB1211, 5-Bromopyridin-3-yl 3-deoxy-3-[4-(3,4,5-trifluorophenyl)-1H-1,2,3-triazol-1-yl]-1-thio-α-D-galactopyranoside]
half-life [1, 7]: 11.2 h
AUC(0-t) [1, 7]: 585 ng·h/mL
Tmax [1, 7]: 2 h
half-life [1, 8]: 12.4 h
AUC(0-t) [1, 8]: 2670 ng·h/mL
half-life [1, 9]: 12.6 h
AUC(0-t) [1, 9]: 3400 ng·h/mL
Tmax [1, 9]: 3 h
half-life [1, 10]: 12.8 h
AUC(0-t) [1, 10]: 3820 ng·h/mL
Tmax [1, 10]: 5 h
AUC(0-t) ([1]; 50 mg, single oral dose 50 mg (10 × 5 mg), fasted state): 5770 ng·h/mL
half-life [1, 11]: 12.1 h
AUC(0-t) [1, 11]: 4900 ng·h/mL
Tmax [1, 11]: 3.5 h
half-life [1, 12]: 15.1 h
AUC(0-t) [1, 12]: 9050 ng·h/mL
Tmax [1, 12]: 3.5 h
half-life [1, 13]: 14.5 h
AUC(0-t) [1, 13]: 15100 ng·h/mL
Tmax [1, 13]: 4 h
AUC(0-inf) [1, 14]: 6360 ng·h/mL
AUC(0-inf) [1, 15]: 13100 ng·h/mL
AUC(0-inf) [1, 16]: 21500 ng·h/mL
Tlog ([1]; single oral dose 5 mg, fasted state): 0.00 h
Tlog ([1]; single oral dose 20 mg, fasted state): 0.00 h
Tlog ([1]; single oral dose 50 mg (1 × 50 mg), fasted state): 0.00 h
Tlog ([1]; single oral dose 50 mg (1 × 50 mg), fed state): 0.75 h
Tlog ([1]; single oral dose 50 mg (10 × 5 mg), fasted state): 0.00 h
Tlog [1, 14]: 0.00 h
Tlog [1, 15]: 0.00 h
Tlog [1, 16]: 0.00 h
Cmin [2, 17]: 249 ng/mL
RAAUC [2, 17]: 2.31
Cmin [2, 18]: 338 ng/mL
RAAUC [2, 18]: 2.11
half-life ([2]; human, plasma, 50 mg, 50 mg BID oral, Day 1, geometric mean, unreliable due to short sampling duration 0-12 hours, exploratory): 7.34 h
half-life ([2]; human, plasma, 50 mg, 50 mg BID oral, Day 10, healthy subjects, geometric mean): 20.2 h
half-life ([2]; human, plasma, 100 mg, 100 mg BID oral, Day 1, geometric mean, unreliable due to short sampling duration 0-12 hours, exploratory): 7.04 h
half-life ([2]; human, plasma, 100 mg, 100 mg BID oral, Day 10, healthy subjects, geometric mean): 12.5 h
Cmax ([2]; human, plasma, 50 mg BID oral, Day 1, healthy subjects, geometric mean): 330 ng/mL
API released in the dissolution media ([3]; FaSSIF): less than 12%
API concentration in FaSSIF ([3]; dissolution): 0.011 mg/mL
safety and tolerability in man [4]: safe and well tolerated
hydrate formation ([5]; DVS): no indication of hydrate formation
hygroscopicity ([5]; dynamic vapor sorption (DVS)): not hygroscopic
solubility [6]: relatively low solubility
